Laboratory results from ChEMBL document CHEMBL6153133, “Discovery of Diphenyl Ether Derivatives as Novel BKCa Channel Activators: Structure-Activity Relationship, Cryo-EM Complex Structures, and In Vivo Animal Studies” (J Med Chem, 2025).
Values belong to the compound of their own block, whether it stands above or below them.

Experiments:
[1] = Oral bioavailability in male Sprague-Dawley rat at 10 mg/kg by LC-MS/MS analysis; assay type: ADME, organism-based; details: in vivo
[2] = Volume of distribution at steady state in male Sprague-Dawley rat at 10 mg/kg, iv by LC-MS/MS analysis; assay type: ADME, organism-based; details: in vivo, read-out: Vdss
[3] = AUClast in male Sprague-Dawley rat at 10 mg/kg, iv by LC-MS/MS analysis; assay type: ADME, organism-based; details: in vivo
[4] = AUClast in male Sprague-Dawley rat at 10 mg/kg, po by LC-MS/MS analysis; assay type: ADME, organism-based; details: in vivo
[5] = Tmax in male Sprague-Dawley rat at 10 mg/kg, po by LC-MS/MS analysis; assay type: ADME, organism-based; details: in vivo
[6] = test system: Rattus norvegicus; assay: Reversal of urinary incontinence in male spontaneous hypertensive rat model assessed as decrease in urine frequency at 0.1 mg/kg, ip measured after 3 hrs relative to control; assay type: functional; parameters: scale not given: the % may be the effect or the level left
[7] = Cmax in male Sprague-Dawley rat at 10 mg/kg, po by LC-MS/MS analysis; assay type: ADME, organism-based; details: in vivo
[8] = Half-life in male Sprague-Dawley rat at 10 mg/kg, po by LC-MS/MS analysis; assay type: ADME, organism-based; details: in vivo
[9] = test system: Rattus norvegicus; assay: Reversal of urinary incontinence in male spontaneous hypertensive rat model assessed as decrease in total urine volume at 1 mg/kg, ip measured after 3 hrs relative to control; assay type: functional; parameters: scale not given: the % may be the effect or the level left
[10] = Clearance in male Sprague-Dawley rat at 10 mg/kg, iv by LC-MS/MS analysis; assay type: ADME, organism-based; details: in vivo
[11] = test system: Rattus norvegicus; assay: Reversal of urinary incontinence in male spontaneous hypertensive rat model assessed as decrease in urine frequency at 0.3 mg/kg, ip measured after 3 hrs relative to control; assay type: functional; parameters: scale not given: the % may be the effect or the level left
[12] = Half-life in male Sprague-Dawley rat at 10 mg/kg, iv by LC-MS/MS analysis; assay type: ADME, organism-based; details: in vivo
[13] = test system: Urinary bladder; assay: Induction of relaxation in Sprague-Dawley rat urinary bladder strips assessed as reduction in contraction; assay type: functional, tissue-based
[14] = test system: Calcium-activated potassium channel subunit alpha-1 (Homo sapiens), Q12791 [UNDEFINED MUTATION]; assay: (§1) Activation of hyperactive human BKca channel G803D/N806K mutant transfected in human AD-293 cells assessed as maximum relative fluorescence value at 5 uM preincubated for 15 mins followed by Tl+ stimulus buffer addition and measured after 80 sec by Flexstation3 multimode microplate reader analysis relative to control; assay type: cell-based; details: time 980.0 sec
Chain of Calcium-activated potassium channel subunit alpha-1 (Homo sapiens), Q12791 [UNDEFINED MUTATION] (Q12791 whole entry, looked up, stated change not applied): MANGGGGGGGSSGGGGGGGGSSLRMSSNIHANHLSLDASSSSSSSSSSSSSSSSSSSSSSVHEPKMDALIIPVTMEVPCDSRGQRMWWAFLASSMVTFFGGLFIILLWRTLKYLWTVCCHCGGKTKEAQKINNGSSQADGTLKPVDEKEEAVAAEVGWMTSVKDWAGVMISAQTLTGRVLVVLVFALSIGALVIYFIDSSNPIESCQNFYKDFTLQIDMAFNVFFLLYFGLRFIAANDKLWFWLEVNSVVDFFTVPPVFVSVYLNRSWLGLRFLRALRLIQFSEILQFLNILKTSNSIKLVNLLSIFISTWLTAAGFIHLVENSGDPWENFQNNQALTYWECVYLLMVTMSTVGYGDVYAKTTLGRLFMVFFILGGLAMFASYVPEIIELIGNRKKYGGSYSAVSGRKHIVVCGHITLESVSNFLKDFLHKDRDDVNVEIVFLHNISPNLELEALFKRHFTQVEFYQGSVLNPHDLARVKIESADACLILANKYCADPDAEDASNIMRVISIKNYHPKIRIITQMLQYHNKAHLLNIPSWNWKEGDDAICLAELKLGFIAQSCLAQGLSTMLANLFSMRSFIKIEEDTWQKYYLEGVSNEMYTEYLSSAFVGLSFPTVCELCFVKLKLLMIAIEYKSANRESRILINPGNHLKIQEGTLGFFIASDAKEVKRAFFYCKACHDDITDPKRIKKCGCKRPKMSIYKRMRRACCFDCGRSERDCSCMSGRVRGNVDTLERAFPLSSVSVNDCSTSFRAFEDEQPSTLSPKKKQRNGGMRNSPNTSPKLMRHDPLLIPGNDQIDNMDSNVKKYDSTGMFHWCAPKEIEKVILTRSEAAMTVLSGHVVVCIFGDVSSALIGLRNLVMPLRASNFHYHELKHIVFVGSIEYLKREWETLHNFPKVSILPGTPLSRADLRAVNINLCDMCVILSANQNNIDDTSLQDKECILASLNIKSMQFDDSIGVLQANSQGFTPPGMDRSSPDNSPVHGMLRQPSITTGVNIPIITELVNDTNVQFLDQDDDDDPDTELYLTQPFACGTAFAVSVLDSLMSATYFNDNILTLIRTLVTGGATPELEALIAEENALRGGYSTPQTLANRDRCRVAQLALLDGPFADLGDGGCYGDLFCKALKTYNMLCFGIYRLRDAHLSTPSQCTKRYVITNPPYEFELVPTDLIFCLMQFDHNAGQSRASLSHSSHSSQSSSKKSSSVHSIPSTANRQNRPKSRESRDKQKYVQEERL

[15] = target: T1, Calcium-activated potassium channel subunit alpha-1 (Homo sapiens, UniProt Q12791); assay: Activation of BKca channel (unknown origin) by cell based method
T1 sequence (Q12791 whole entry): as the sequence (Q12791 whole entry, looked up, stated change not applied) above

[16] = target: T1, Calcium-activated potassium channel subunit alpha-1; assay: Activation of BKca channel (unknown origin) by cell-based fluorescence assay
[17] = test system: Calcium-activated potassium channel subunit alpha-1 (Homo sapiens), Q12791 [UNDEFINED MUTATION]; assay: as §1, with “assessed as fold change in maximum relative” for “assessed as maximum relative”, “reader analysis” for “reader analysis relative to control”; assay type: cell-based; details: filed as opener, time 980.0 sec
[18] = target: T1, Calcium-activated potassium channel subunit alpha-1; assay: Activation of human KCa1.1 by patch clamp method
[19] = target: Calcium-activated potassium channel subunit alpha-1 (Homo sapiens, UniProt Q12791, G803D/N806K); assay: Activation of hyperactive human BKca channel G803D/N806K mutant transfected in human AD-293 cells incubated for 20 to 30 mins by Flexstation3 multimode microplate reader analysis; assay type: cell-based
Chain of Calcium-activated potassium channel subunit alpha-1 (Homo sapiens, UniProt Q12791, G803D/N806K) (Q12791 whole entry, looked up, stated change not applied): as above

bioavailability [1]: 23.5% | Vd [2]: 13.2 L/kg | AUC(0-t) [3]: 1450 ng·h/mL | AUC(0-t) [4]: 344 ng·h/mL | Tmax [5]: 4.2 h | Cmax [7]: 61.5 ng/mL | half-life [8]: 3.9 h | clearance [10]: 115 mL/min/kg | half-life [12]: 4.5 h
SMILES: Cl.Nc1ccc(Oc2c(F)c(F)c(C(F)(F)F)c(F)c2F)c(O)c1
Activity [6]: 43% | Activity [9]: 48.5% | Activity [11]: 65%

EC50 [13]: 2.5 µM | Activity [14]: 34.9% | EC50 [15]: 5.4 µM | EC50 [16]: 5.4 µM
SMILES: O=C(O)c1ccc(Cl)c2c1[nH]c1c3ccc(C(F)(F)F)cc3oc12

Activity [14]: 14.4% | EC50 [15]: 7 µM | fold change (FC) [17]: 2.3 | EC50 [16]: 7 µM | EC50 [18]: 0.4 µM
SMILES: FC(F)(F)c1cc(NC(=S)Nc2ccc(Br)cc2-c2nnn[nH]2)cc(C(F)(F)F)c1

EC50 [19]: 3.9 µM
SMILES: Oc1ccc(-c2onc(C(F)(F)F)c2-c2ccc(Cl)cc2)c(O)c1
